# System: cyclic GMP
# Test: Secretagogue-stimulated cyclic GMP accumulation in colonic crypt cell suspensions
# Assay type: cell-based
compound,measurement,value
[Ca+2] [Ca^2+],Effect on Guanylin or STa induced cyclic GMP production,attenuates

# — patent US8486381B2, “Methods of modulating intestinal fluid balance” (Amgen Inc., priority 2005, dated 2013)
